# Laboratory results: patent US12389930B2, “Breast milk-derived Lactobacillus plantarum and use thereof” (Beijing Sanyuan Foods Co., Ltd., priority 2020, dated 2025)
# Tested on: Lactobacillus plantarum P6
# Assay: Drug resistance determination (E-test strips, MIC)
# Type: cell-based
# Design: key to Susceptibility class of P6 to the antibiotic: S: susceptible; I: intermediate; R: resistance
# Conditions: for MIC: Lactiplantibacillus plantarum, P6, read-out: Minimum inhibitory concentration MIC; for Susceptibility of P6 to the antibiotic (in words): summary of Table 3
# Procedure: The cultured P6 bacteria solution was activated for three generations, and streaked on the MRS solid medium plate, which was then cultured in an anaerobic incubator at 37° C. for 24 hours. A single colony was picked up and dissolved in normal saline to prepare a suspension equivalent to 0.5 […] concentration, which was then coated on an MH solid medium. After drying, ten E-test strips were attached onto the MH solid medium, and cultured at 37° C. for 24-48 hours. The MIC value (minimum inhibitory concentration value) was determined according to the inhibition zone diameter. Escherichia coli ATCC25922 and Staphylococcus aureus ATCC25923 were used as quality-control strains. Quality-control strains were used as control for each batch test, and the MIC of the quality-control strains was required to be within the range specified by CLSI (Clinical and Laboratory Standards […]). An MH solid plate without antibiotics was used as blank control.
# [1] = E-test, MH solid medium, 37° C., 24-48 hours
SMILES,MIC [1] [µg/mL],Susceptibility of P6 to the antibiotic (in words),Minimum inhibitory concentration MIC [1] [µg/mL],"Susceptibility class of P6 to the antibiotic (E-test, class after the slash in the MIC cell)"
CN(C)[C@@H]1C(O)=C(C(N)=O)C(=O)[C@@]2(O)C(O)=C3C(=O)c4c(O)cccc4[C@@](C)(O)[C@H]3C[C@@H]12 [tetracycline],256,–,–,–
NCC[C@H](O)C(=O)N[C@@H]1C[C@H](N)[C@@H](O[C@H]2O[C@H](CN)[C@@H](O)[C@H](O)[C@H]2O)[C@H](O)[C@H]1O[C@H]1O[C@H](CO)[C@@H](O)[C@H](N)[C@H]1O [amikacin],2,extremely susceptible,–,–
O=C(N[C@H](CO)[C@H](O)c1ccc([N+](=O)[O-])cc1)C(Cl)Cl [chloramphenicol],16,intermediately susceptible,–,–
CC[C@H]1OC(=O)[C@H](C)[C@@H](O[C@H]2C[C@@](C)(OC)[C@@H](O)[C@H](C)O2)[C@H](C)[C@@H](O[C@@H]2O[C@H](C)C[C@H](N(C)C)[C@H]2O)[C@](C)(O)C[C@@H](C)C(=O)[C@H](C)[C@@H](O)[C@]1(C)O [erythromycin],0.38,extremely susceptible,–,–
CO/N=C(\C(=O)N[C@@H]1C(=O)N2C(C(=O)O)=C(CSc3nc(=O)c(=O)[nH]n3C)CS[C@H]12)c1csc(N)n1 [ceftriaxone],0.125,extremely susceptible,–,–
"CC[C@H]1OC(=O)[C@H](C)[C@@H](O[C@H]2C[C@@](C)(OC)[C@@H](O)[C@H](C)O2)[C@H](C)[C@@H](O[C@@H]2O[C@H](C)C[C@H](N(C)C)[C@H]2O)[C@](C)(O)C[C@@H](C)CN(C)[C@H](C)[C@@H](O)[C@]1(C)O [azithromycin, Azithromycin]",0.094,extremely susceptible,–,–
CC1(C)S[C@@H]2[C@H](NC(=O)Cc3ccccc3)C(=O)N2[C@H]1C(=O)O [penicillin G],–,resistant,32,R
CC1(C)S[C@@H]2[C@H](NC(=O)[C@H](N)c3ccccc3)C(=O)N2[C@H]1C(=O)O [ampicillin],1.5,extremely susceptible,–,–
CCC[C@@H]1C[C@@H](C(=O)N[C@@H]([C@H]2O[C@H](SC)[C@H](O)[C@@H](O)[C@H]2O)[C@H](C)Cl)N(C)C1 [clindamycin],0.016,–,–,–
